From publication PMC4014597 (PLoS ONE, 2014)

Assays:
[1] = test system: RAJI cells; test: Cell viability by trypan blue exclusion, RAJI; type: cell-based, human; conditions: 48 h; for IC50: Homo sapiens, Raji, read-out: IC50 (mean ± SD) cell viability RAJI
Experimental: (§1) U-937 and RAJI cell lines were purchased from Deutsche Sammlung für Mikroorganismen und Zellkulturen (DSZM). Cells were maintained in RPMI 1640 (Lonza) supplemented with 10% fetal calf serum (Lonza) and 1% antibiotic–antimycotic (Lonza). Cells were treated with compounds at the indicated concentrations in exponential growth phase. Proliferation and viability were assessed by trypan blue exclusion analysis at the indicated time points.

[2] = test system: CMV-luc construct in KG-1 cells; test: CMV-luc assay (luciferase re-expression from methylated CMV promoter); type: cell-based; conditions: 24 h
[3] = target: T1, Human G9a (Homo sapiens, UniProt Q96KQ7); test: G9a assay (3H-AdoMet filter-binding); type: biochemical; conditions: for IC50: 10-dose IC50 mode, 2-fold serial dilution starting at 400 µM
T1 sequence (Q96KQ7 786-1210 limits assumed): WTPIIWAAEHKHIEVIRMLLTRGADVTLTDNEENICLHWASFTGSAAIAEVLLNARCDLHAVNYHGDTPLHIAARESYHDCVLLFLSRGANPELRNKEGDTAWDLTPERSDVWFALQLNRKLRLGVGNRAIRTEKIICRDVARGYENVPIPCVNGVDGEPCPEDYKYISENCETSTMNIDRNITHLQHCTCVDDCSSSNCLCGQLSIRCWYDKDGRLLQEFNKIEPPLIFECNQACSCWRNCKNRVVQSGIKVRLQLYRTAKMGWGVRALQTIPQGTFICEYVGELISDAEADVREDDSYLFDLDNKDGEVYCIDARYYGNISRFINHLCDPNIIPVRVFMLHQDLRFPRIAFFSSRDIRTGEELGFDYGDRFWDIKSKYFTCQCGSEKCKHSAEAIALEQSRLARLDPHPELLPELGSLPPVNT
Experimental: The reaction buffer was 50 mM Tris-HCl, pH 8.5, 50 mM NaCl, 5 mM MgCl2, 1 mM dithiothreitol (DTT), 1 mM PMSF, and 1% DMSO. Standard substrate concentrations were 5 µM biotinylated H3 (1–21) peptide (AnaSpec) substrate and 0.1 mM AdoMet. For control compound IC50 determinations, the test compounds were diluted in DMSO and then added to the enzyme/substrate mixture in nanoliter amounts by using an acoustic technology (Echo 500; Lab-cyte). The reaction was initiated by the addition of ^3H-AdoMet, and incubated at 30°C for 1 h. The reaction was detected by a filter-binding method. Data analysis was performed using Graph Pad Prism software for curve fits, and GraFit (Erithacus) for global fit of kinetic studies.

[4] = test system: U-937 cells; test: Cell viability by trypan blue exclusion, U-937; type: cell-based, human; conditions: U-937, 48 h; for IC50: Homo sapiens, read-out: IC50 (mean ± SD) cell viability U-937
Experimental: as §1

Compound | IC50 [1] | fold-induction of the luciferase signal (CMV-luc) ([2]; 10 µM) | fold-induction of the luciferase signal (CMV-luc) ([2]; 25 µM) | fold-induction of the luciferase signal (CMV-luc) ([2]; 50 µM) | inhibition at 0.78 µM [3] | inhibition at 1.56 µM [3] | inhibition at 3.1 µM [3] | inhibition at 6.2 µM [3] | inhibition at 25 µM [3] | inhibition at 50 µM [3] | inhibition at 100 µM [3] | inhibition at 200 µM [3] | inhibition at 400 µM [3] | IC50 [3] | IC50 [4] | melting point | fold-induction of the luciferase signal (CMV-luc) ([2]; 5 µM) | inhibition at 12.5 µM [3] | antiproliferative potency compared to SGI-1027, fold more potent ([1]; RAJI) | antiproliferative potency compared to SGI-1027, fold less efficient [4]
CN1CCCN(c2nc(NC3CCN(Cc4ccccc4)CC3)c3ccccc3n2)CC1 [Compound 4] | 21.1 ± 2.5 µM | 2.8 fold | 12.5 fold | ineffective | 0% | 0% | 1.9% | 0% | 0% | 7.9% | 21.8% | 16.4% | 23.5% | > 400 µM | 16.6 ± 3.8 µM |  |  |  |  | 
c1ccc(CN2CCC(Nc3nc(N4CCCC4)nc4ccccc34)CC2)cc1 [Compound 10, N-(1-benzylpiperidin-4-yl)-2-(pyrrolidin-1-yl)quinazolin-4-amine] | 18.7 ± 4.3 µM |  | not effective |  | 0.3% | 13.4% | 14.7% | 4.6% | 13% | 18.6% | 20.8% | 49.5% | 37.8% | > 400 µM | 14.7 ± 3.8 µM | 112 to 115 °C | 2/3 | 5.9% |  | 
c1ccc(CN2CCC(Nc3nc(N4CCN(c5ccccn5)CC4)nc4ccccc34)CC2)cc1 [Compound 13] | 19.7 ± 1.4 µM |  | not effective |  | 9.4% | 21.6% | 11% | 16.7% | 11.1% | 27.2% | 24.9% | 29.2% | 14% | > 400 µM | 18.8 ± 1.2 µM |  | 2/3 | 0% |  | 
c1ccc(CN2CCC(Nc3nc(N4CCN(c5ccccc5)CC4)nc4ccccc34)CC2)cc1 [Compound 14, N-(1-benzylpiperidin-4-yl)-2-(4-phenylpiperazin-1-yl)quinazolin-4-amine] | 3.4 ± 0.3 µM |  | 7.5 fold | ineffective | 17.3% | 13.5% | 0% | 4.2% | 10.6% | 16.5% | 22.4% | 23.8% | 24% | > 400 µM | 4.4 ± 1.4 µM |  | 2/3 | 21.3% | 3 fold | 2.6 fold
